Measurements as given in patent US7173004B2, “Macrocyclic isoquinoline peptide inhibitors of hepatitis C virus” (Bristol-Myers Squibb Company, priority 2003, dated 2007).

Each compound was assayed on HCV replicon (HCV 1b-377-neo replicon cells, Huh7) (assay: HCV replicon cell-based FRET assay). Settings: Hepatitis C virus, Huh-7.
Protocol: HCV Replion assays were utilized in the present invention, and were prepared, conducted and validated as follows:
An HCV replicon whole cell system was established as described by Lohmann V, Korner F, Koch J, Herian U, Theilmann L, Bartenschlager R., Science 285(5424): 110–3 (1999). This system enabled us to evaluate the effects of our HCV Protease compounds on HCV RNA replication. Briefly, using the HCV strain 1B sequence described in the Lohmann paper (Assession number: AJ238799), an HCV cDNA was synthesized by Operon Technologies, Inc. (Alameda, Calif.), and the full-length replicon was then assembled in plasmid pGem9zf(+) (Promega, Madison, Wis.) using standard molecular biology techniques. The replicon consists of (i) the HCV 5′ UTR fused to the first 12 amino acids of the capsid protein, (ii) the neomycin phosphotransferase gene (neo), (iii) the IRES from encephalomyocarditis virus (EMCV), and (iv) HCV NS3 to NS5B genes and the HCV 3′ UTR. Plasmid DNAs were linearized with ScaI and RNA transcripts were synthesized in vitro using the T7 MegaScript transcription kit (Ambion, Austin, Tex.) according to manufacturer's directions. To generate cell lines, 4×10^6 Huh-7 cells (kindly provided by R. Bartenschlager and available from Health Science Research Resources Bank, Japan Health Sciences Foundation) were electroporated (GenePulser System, Bio-Rad) with 10 microgram(“μg”) of RNA transcript and plated into 100-mm dishes. After 24 h, selective media containing 1.0 milligrams/milliliter (“mg/ml”) G418 was added and media was changed every 3 to 5 days. Approximately 4 weeks after electroporation, small colonies were visible which were isolated and expanded for further analysis. These cell lines were maintained at 37° C., 5% CO2, 100% relative humidity in DMEM (Cat# 11965-084) Gibco-BRL, Rockville, Md., with 10% heat inactivated calf serum (Sigma), 10 ml of 100× penicillin/streptomycin (Cat# 15140-122) Gibco-BRL, Rockville, Md., Geneticin (Cat# 10131-027) Gibco-BRL, Rockville, Md. at 1 mg/ml. One of the cell lines (deposited as ATCC Accession No. PTA-4583 in the American Type Culture Collection) which had approximately 3,000 copies of HCV replicon RNA/cell was used for development of the assay (HCV 1b-377-neo replicon cells).
Huh7 cells, constitutively expressing the HCV replicon, were grown in Dulbecco's Modified Eagle Media (DMEM) containing 10% Fetal calf serum (FCS) and 1 mg/ml G418 (Gibco-BRL). Cells were seeded the night before (1.5×10^4 cells/well) in 96-well tissue-culture sterile plates. Compound and no compound controls were prepared in DMEM containing 4% FCS, 1:100 Penicillin/Streptomysin, 1:100 L-glutamine and 5% DMSO in the dilution plate (0.5% DMSO final concentration in the assay). Compound/DMSO mixes were added to the cells and incubated for 4 days at 37° C. After 4 days, cells were first assessed for cytotoxicity using alamar Blue (Trek Diagnotstic Systems) for a CC50 reading. The toxicity of compound (CC50) was determined by adding 1/10th volume of alamar Blue to the media incubating the cells. After 4 hr, the fluorescence signal from each well was read, with an excitation wavelength at 530 nm and an emission wavelength of 580 nm, using the Cytofluor Series 4000 (Perspective Biosystems). Plates were then rinsed thoroughly with Phosphate-Buffered Saline (PBS) (3 times 150 μl). The cells were lysed with 25 μl of a lysis assay reagent containing an HCV protease substrate (5× cell Luciferase cell culture lysis reagent (Promega #E153A) diluted to 1× with distilled water, NaCl added to 150 mM final, the FRET peptide diluted to 10 μM final from a 2 mM stock in 100% DMSO). The HCV protease substrate (FRET peptide; AnaSpec, Inc. cat #22991, described by Taliani et al. in Anal. Biochem. 240(2):60–67 (1996)) contains a fluorescence donor, EDANS, near one end of the peptide and an acceptor, DABCYL, near the other end. […]

Row | SMILES | EC50
1 | COc1ccc2c(O[C@@H]3C[C@H]4C(=O)N[C@]5(C(=O)O)C[C@H]5/C=C\CCCSC(C)(C)[C@H](NC(=O)OC(C)(C)C)C(=O)N4C3)nccc2c1 [Compound 79, (1S,4R,6S,14R,18R)-7-cis-14-tert-Butoxycarbonylamino-13,13-dimethyl-18-(6-methoxy-isoquinolin-1-yloxy)-2,15-dioxo-12-thia-3,16-diazatricyclo[14.3.0.0^4,6]nonadec-7-ene-4-carboxylic acid] | 5 to 50 µM
2 | CC(C)(C)OC(=O)NC1CSCCCC=CC2CC2(C(=O)NS(=O)(=O)C2CC2)NC(=O)C2CC(Oc3nccc4c(Cl)cccc34)CN2C1=O (stereo not shown) [Compound 78] | < 0.05 µM
3 | COc1ccc2c(OC3CC4C(=O)NC5(C(=O)NS(=O)(=O)C6(C)CC6)CC5C=CCCCOC(C)C(NC(=O)OCC(C)(C)C)C(=O)N4C3)nccc2c1 (stereo not shown) [Compound 67] | 0.05 to 0.5 µM
4 | CC(=O)NC1CCCCCC=CC2CC2(C(=O)NS(=O)(=O)C2CC2)NC(=O)C2CC(Oc3nccc4ccccc34)CN2C1=O (stereo not shown) [Compound 26] | 0.05 to 0.5 µM
5 | CC(C)(C)OC(=O)N[C@H]1CCCCCCC[C@@H]2C[C@@]2(C(=O)NS(=O)(=O)C2CC2)NC(=O)[C@@H]2C[C@@H](Oc3nccc4ccccc34)CN2C1=O [Compound 10, [4-Cyclopropanesulfonylaminocarbonyl-18-(isoquinolin-1-yloxy)-2,15-dioxo-3,16-diaza-tricyclo[14.3.0.0^4,6]nonadec-14-yl]-carbamic acid tert-butyl ester] | < 0.05 µM
6 | COc1ccc2c(OC3CC4C(=O)NC5(C(=O)NS(=O)(=O)C6(C)CC6)CC5C=CCCCSCC(NC(=O)OCC(C)(C)C)C(=O)N4C3)nccc2c1 (stereo not shown) [Compound 42] | < 0.05 µM
7 | CCC1(S(=O)(=O)NC(=O)C23CC2C=CCCCOC(C)C(NC(=O)OC(C)C)C(=O)N2CC(Oc4nccc5cc(OC)ccc45)CC2C(=O)N3)CC1 (stereo not shown) [Compound 72] | 0.05 to 0.5 µM
8 | CCCC1(S(=O)(=O)NC(=O)[C@@]23C[C@H]2/C=C\CCCCC[C@H](NC(=O)OC(C)(C)C)C(=O)N2C[C@H](Oc4nccc5ccccc45)C[C@H]2C(=O)N3)CC1 [Compound 6, [18-(Isoquinolin-1-yloxy)-2,15-dioxo-4-(1-propyl-cyclopropanesulfonylaminocarbonyl)-3,16-diaza-tricyclo[14.3.0.0^4,6]nonadec-7-en-14-yl]-carbamic acid tert-butyl ester] | < 0.05 µM
9 | COc1ccc2c(OC3C[C@H]4C(=O)N[C@]5(C(=O)NS(=O)(=O)C6CC6)C[C@H]5/C=C\CCCSC[C@H](NC(=O)OC(C)(C)C)C(=O)N4C3)nccc2c1 (stereo partly shown) [Compound 18B, [4-Cyclopropanesulfonylaminocarbonyl-18-(6-methoxy-isoquinolin-1-yloxy)-2,15-dioxo-12-thia-3,16-diaza-tricyclo[14.3.0.0^4,6]nonadec-7-en-14-yl]-carbamic acid tert-butyl ester] | < 0.05 µM
10 | O=C(CC1CC1)NC1CCCCCC=CC2CC2(C(=O)NS(=O)(=O)C2CC2)NC(=O)C2CC(Oc3nccc4ccccc34)CN2C1=O (stereo not shown) [Compound 22] | < 0.05 µM
11 | COc1ccc2c(OC3CC4C(=O)NC5(C(=O)NS(=O)(=O)C6CC6)CC5C=CCCCOC(C)C(NC(=O)NC5CCCC5)C(=O)N4C3)nccc2c1 (stereo not shown) [Compound 65] | < 0.05 µM
12 | COc1ccc2c(OC3CC4C(=O)NC5(C(=O)NS(=O)(=O)C6(C)CC6)CC5C=CCCCSCC(NC(=O)OC(C)C)C(=O)N4C3)nccc2c1 (stereo not shown) [Compound 41] | < 0.05 µM
13 | CCC1(S(=O)(=O)NC(=O)C23CC2C=CCCCSCC(NC(=O)NC2CCCC2)C(=O)N2CC(Oc4nccc5cc(OC)ccc45)CC2C(=O)N3)CC1 (stereo not shown) [Compound 46] | < 0.05 µM
14 | COc1ccc2c(OC3CC4C(=O)NC5(C(=O)NS(=O)(=O)C6CC6)CC5C=CCCCOC(C)C(NC(=O)OCC(C)(C)C)C(=O)N4C3)nccc2c1 (stereo not shown) [Compound 63] | 0.05 to 0.5 µM
15 | CCC1(S(=O)(=O)NC(=O)C23CC2C=CCCCSCC(NC(=O)OC(C)C)C(=O)N2CC(Oc4nccc5cc(OC)ccc45)CC2C(=O)N3)CC1 (stereo not shown) [Compound 44] | < 0.05 µM
16 | COc1ccc2c(OC3CC4C(=O)NC5(C(=O)NS(=O)(=O)C6CC6)CC5C=CCOCCCC(NC(=O)OCC(C)(C)C)C(=O)N4C3)nccc2c1 (stereo not shown) [Compound 32] | < 0.05 µM
